Data reported in patent US20150182667A1, “Composition with Biofilm Dispersal Agents” (Vanderbilt University, priority 2012, published 2015).
Values after ≈ are worked out from the molar mass of the structure shown. Read-outs that look alike come from different tables or passages of the source.

How the values were obtained:
[1] = test system: biofilm derived P. aeruginosa clinical strains (18189, 418); assay: Biofilm susceptibility, Calgary Biofilm device (MBEC plates): MBIC and viable CFU; assay type: cell-based, Pseudomonas aeruginosa; details: * = with 5 mM D-AA; for Biofilm (MBIC) 418: P. aeruginosa 418 biofilm; for Biofilm (MBIC) 18189: P. aeruginosa 18189 biofilm
Description: Biofilm susceptibility to antimicrobial agents in the presence and absence of D-AA was determined using the Calgary Biofilm device. Briefly, biofilms from overnight cultures were established as above on individual pegs of the minimum biofilm eradication concentration (MBEC) plates (Innovotech, Canada) with agitation for 48 h at 37° C. Following incubation, the lid with pegs was removed from the incubation plate, washed by re-suspending pegs into plate with wells containing 200 μl of 1×PBS, then placed into a 96-well challenge plate containing pre-diluted antibiotics with or without an […] for an additional 24 h at 37° C. Following challenge plates were washed, and the attached viable cells on PEGs within the biofilm were determined by plating serial dilutions onto blood agar plates (Remel). Corresponding minimal biofilm inhibitory concentration (MBIC) was also determined by measuring the optical density in individual wells of the challenge plate at 600 nm. The lowest concentration of antibiotic for which an optical density of <0.100 was recorded as the MBIC. For each antibiotic, the MBIC was determined in the presence or absence of a mixture of D-AA (D-Phenylalanine, D-Methionine, and D-Tryptophan) at an equimolar concentration of 5 mM. Three independent experiments were performed for each of these assays, with a minimum of 3 replicates.

[2] = test system: planktonic P. aeruginosa clinical strains (18189, 418); assay: MIC by CLSI broth microdilution, planktonic bacteria; assay type: cell-based, Pseudomonas aeruginosa; details: * = with 5 mM D-AA; for MIC: Pseudomonas aeruginosa
Description: Overnight cultures of bacterial strains were diluted to a final concentration of 5×10^5 CFU/ml in MHB-II. The resulting bacterial suspension was aliquoted (100 μL) into polystyrene round-bottom 96-well plates containing 100 μL of a 2× concentration of a previously serially diluted (1:2) antibiotic. Each antimicrobial tested was serially diluted 10 times. Following the addition of bacteria, the microtiter plate was covered and was incubated under stationary conditions at 37° C. in the presence of 1× antibiotics. […] MICs of antibiotics were determined in triplicate according to the Clinical and Laboratory Standards Institute (CLSI) broth microdilution as described by the performance standards for antimicrobial susceptibility testing (M100-S22, January 2012).

[3] = test system: S. aureus clinical isolates biofilms; assay: Biofilm dispersal and prevention, crystal violet assay (Example 3); assay type: cell-based; details: for dispersal of established biofilms (biofilm biomass): panel of clinical isolates of methicillin-resistant S. aureus (n=5), 5 mM, 24 h, FIGS. 8A, 8C; for biofilm dispersal in pre-screening of eight individual D-AAs: pre-formed biofilms of four clinical isolates, 0.001-50 mM, FIG. 7
Description: Like in Example 1, biofilm formation was assessed under static conditions using polystyrene 96-well plates (Corning, Inc.). Overnight bacterial cultures were diluted to an OD600 of 0.1 in TSB (˜10^7 CFU/mL), and 20 μL were added to individual wells filled with 180 μL of media and incubated at 37° C. for 48 h. To assess the biofilm dispersal activity of D-AAs, the culture medium from biofilms was removed after 48 h and 200 μL fresh medium containing either an individual D-AA or an equimolar mixture of D-AAs (1:1:1: D-Met:D-Pro:D-Trp) were added at the indicated concentrations. After treatment with D-AA(s) for 24 h, plates were gently washed with 1× phosphate buffered saline (PBS) to remove unattached cells, stained with 0.1% (w/v) crystal violet (Sigma Aldrich) for 10 min, rinsed with PBS, and then solubilized with 80% (v/v) ethanol. Biofilm biomass was determined by measuring the absorbance of solubilized stain at 570 nm using a microtiter plate reader. For assays measuring the ability of D-AA to block biofilm formation, cells were grown under biofilm conditions as above in the presence of media containing D-AAs. Representative images of the plates of CV-stained biofilms following treatment with D-AA prior to solubilization were taken using a digital camera. All assays were repeated in triplicate with a minimum of four technical replicates.

[4] = test system: P. aeruginosa clinical isolate biofilms; assay: Biofilm dispersal and prevention, crystal violet 96-well assay (Example 1); assay type: cell-based, Pseudomonas aeruginosa; details: 5 mM; for biofilm dispersal against panel of clinical isolates (biofilm biomass OD570): P. aeruginosa clinical isolates, FIGS. 3A, 3C; for biofilm dispersal in pre-screening of eight D-AAs: pre-formed P. aeruginosa biofilms, FIG. 1
Description: (§1) Biofilm formation was performed under static conditions in polystyrene 96-well plates (Corning, Inc., Corning, N.Y.). Briefly, overnight bacterial cultures were diluted to an OD600 of 0.1 in CA-MHB and 10 μL was added to individual wells filled with 190 μl of media and incubated at 37° C. for 48 h without shaking for biofilm growth. Following incubation, culture media was removed and 200 μL media containing individual D-AA at concentrations of 5 mM-1 nM was added. Plates were incubated for an additional 24 h at 37° C. After treatment, plates were gently washed with 1× phosphate buffered saline (PBS; pH 7.4) to remove non-adherent bacteria. Biofilms (i.e. attached cells) were then stained with 0.1% (w/v) crystal violet for 10 min, washed, followed by solubilization of crystal violet with 33% (v/v) acetic acid for 10 min. Biofilm biomass was determined by measuring the absorbance at 570 nm using a microtiter plate reader. For assays measuring the ability of D-AA to block biofilm formation, cells were grown under biofilm conditions as above in the presence of media containing D-AA. Three independent experiments with a minimum of 4 replicates were performed for each experimental assay. Representative images of the plates of CV stained biofilms following treatment with D-AA, prior to solubilization, were taken using a digital camera.

[5] = test system: S. aureus clinical isolate biofilms; assay: as above; assay type: cell-based, Staphylococcus aureus; details: 5 mM; for biofilm dispersal against panel of clinical isolates (biofilm biomass OD570): S. aureus clinical isolates, FIGS. 3A, 3C; for biofilm dispersal in pre-screening of eight D-AAs: pre-formed S. aureus biofilms, FIG. 1
Description: as §1

human dermal fibroblasts = assay: CellTiter-Fluor cell viability assay; assay type: cell-based
Description: (§2) To observe the cellular viability of PUR/D-AA composites, human dermal fibroblasts and human osteoblasts (PromoCell) were maintained in Dulbecco's Modified Eagle Medium (DMEM; Invitrogen) supplemented with 10% Fetal Bovine Serum (FBS) and 1× penicillin/streptomycin. Human epidermal keratinocytes (HEK-001; ATCC CRL-2404) were maintained in Keratinocyte-serum free media (GIBCO) supplemented with 5 ng/mL human recombinant EGF and 2 mM L-glutamine. All cell lines were cultured at 37° C. in 5% CO2. Prior to each assay cells were seeded at 100% confluence in black-clear bottom 96-well plates. After 24 h, cells were exposed to media containing D-AA, 50 mM-1 nM, and incubated for 24-48 h at 37° C. in 5% CO2. Following treatment, cells were washed, resuspended in 100 μL of sterile saline and viability was determined using the CellTiter-Flour Cell Viability Assay (Promega) following the manufacturer's instructions. Viability assays were performed in triplicate with a minimum of 3 replicates. Viability was reported as the percentage of viable cells relative to untreated controls.
(§3) Human dermal fibroblasts and osteoblasts (PromoCell, Heidelberg, Germany) were maintained in Dulbecco's Modified Eagle Medium (DMEM; Invitrogen, Grand Island, N.Y.) supplemented with 10% Fetal Bovine Serum (FBS) and 1× penicillin/streptomycin at 37° C. in 5% CO2. Prior to each assay, cells were seeded at 100% confluence in black-clear bottom 96-well plates. After 24 h cells were exposed to media containing D-AA (1 nM-50 mM) and incubated for 24 h. Following treatment, cells were washed, re-suspended in 100 μL of sterile saline, and assessed for viability using the CellTiter-Fluor Cell Viability Assay (Promega, Madison, Wis.) following the manufacturer's instructions. Viability assays were performed in triplicate with a minimum of four replicates. Viability was reported as the percentage of viable cells relative to untreated controls.

[6] = Release of D-AAs from PUR scaffolds in PBS (HPLC); assay type: physicochemical; details: for burst release: day 1, PUR scaffold with 10 wt % 1:1:1 D-Met:D-Pro:D-Trp; for b parameter of Weibull model: fit of D-AA release data
Description: Also, kinetic release assays were performed on the PUR scaffolds by incorporating 10 wt % of a 1:1:1 mixture of D-Tr:D-Pro:D-Met incubated in PBS for up to 8 weeks. The medium was be sampled twice weekly and analyzed for D-AAs by HPLC.
PUR scaffolds incorporating 10 wt % of a 1:1:1 mixture of D-Met:D-Pro:D-Trp were incubated in PBS at 37° C. under static conditions for up to 8 weeks. This mixture was evaluated in vitro, in vivo and in the release kinetics tests to account for potential interactions between D-AAs during release. The medium was sampled on days 1, 2, 4, 7, 10, 14, 21, and 28 and analyzed for D-AAs by HPLC using a system equipped with a Waters 1525 binary pump and a 2487 Dual-Absorbance Detector at 200 nm. Samples of released D-AAs were eluted through an Atlantis HILIC Silica column (5 μm particle size, 4.6 mm diameter×250 mm length) using an isocratic mobile phase flowing at 1 mL/min. The mobile phase contained 2.5 mM potassium dihydrogen phosphate with pH=2.85 (A) and Acetonitrile (B) at a ratio of A25:B75. The column oven temperature was maintained at 30° C. Sample concentration was determined in reference to an external standard curve using the Waters Breeze system. Standard curves were prepared in the following concentration ranges: (1) 7.8 μg/mL to 1 mg/mL for D-Met and D-Pro and (2) […] to 100 μg/mL for D-Trp.

S. aureus Xen 36A = assay: Contaminated 6-mm excisional cutaneous wounds in mice; assay type: in vivo, C57BL/6 mice; details: 2×10^6 CFU, collagen gel with 5% D-Trp, 1 and 3 days, not shown
Description: 6-mm excisional wounds in C57BL/6 mice (6-8 weeks), which had previously been shaved and sterilized, were made. The mice were contaminated with 2×10^6 or 2×10^7 CFU S. aureus Xen 36A (Perkin Elmer, Waltham, Mass.). Approximately 2-3 minutes following exposure to bacteria, collagen gels (hydrogel, HG) with and without 5% D-Trp were applied to the wounds for about 5 minutes before applying a Tegaderm bandage (3M, St. Paul, Minn.). Wounds were monitored daily for up to 3 days. At 1 and 3 days post-infection mice were evaluated using the IVIS (to visualized bioluminescent bacteria within wounds) and the wound tissues were harvested, homogenized, and plated on blood agar to enumerate bacteria within wound (CFU/mL/g tissue).

[7] = Release of D-Trp from collagen gel; assay type: physicochemical; details: collagen gel with 5% D-Trp
human osteoblasts = assay: CellTiter-Fluor cell viability assay; assay type: cell-based; details: 24 h
Description: as §2, §3

[8] = P. aeruginosa 418, read-out: Planktonic (MIC) 418
[9] = P. aeruginosa 18189, read-out: Planktonic (MIC) 18189
[10] = PUR scaffold with 10 wt % D-AA mixture, PBS 37° C.

Row | Planktonic (MIC) 418 ([2]; P. aeruginosa 418) [µg/mL] | Planktonic (MIC) 18189 ([2]; P. aeruginosa 18189) [µg/mL] | MIC [2, 8] [µg/mL] | MIC [2, 9] [µg/mL] | Compound | Biofilm (MBIC) 418 [1] [µg/mL] | Biofilm (MBIC) 18189 [1] [µg/mL] | dispersal of established biofilms (biofilm biomass) [3] | biofilm dispersal in pre-screening of eight individual D-AAs [3] | biofilm dispersal against panel of clinical isolates (biofilm biomass OD570) [4] | biofilm dispersal in pre-screening of eight D-AAs [4] | biofilm dispersal against panel of clinical isolates (biofilm biomass OD570) [5] | biofilm dispersal in pre-screening of eight D-AAs [5] | burst release ([6]; PBS 37° C.) [%] | b parameter of Weibull model [6] | also measured
1 | 64 | 128 | 128 (≈ 428 µM) | 64 (≈ 214 µM) | C[C@@H](O)[C@H]1C(=O)N2C(C(=O)O)=C(SCCN=CN)C[C@H]12 [IMI, Imipenem] | >128 | >128 |  |  |  |  |  |  |  |  | 
2 | 16 | 16 | 16 (≈ 27.3 µM) | 16 (≈ 27.3 µM) | NCC[C@H](O)C(=O)N[C@@H]1C[C@H](N)[C@@H](O[C@H]2O[C@H](CN)[C@@H](O)[C@H](O)[C@H]2O)[C@H](O)[C@H]1O[C@H]1O[C@H](CO)[C@@H](O)[C@H](N)[C@H]1O [AMK, Amikacin] | >256 | >256 |  |  |  |  |  |  |  |  | 
3 |  |  |  |  | CSCC[C@@H](N)C(=O)O [D-Met, D-methionine] |  |  | effective at dispersing established biofilms | effective at dispersing biofilms | capable of significantly dispersing biofilm formation | relatively more effective at dispersing biofilms | capable of significantly dispersing biofilm formation | relatively more effective at dispersing biofilms | 60 | 0.56 | cytotoxicity (human dermal fibroblasts; human fibroblasts, higher concentrations): cytotoxicity was also observed; cumulative release by day 14 [6, 10]: ~100%
4 |  |  |  |  | N[C@H](Cc1c[nH]c2ccccc12)C(=O)O [D-Trp, D-tryptophan] |  |  | effective at dispersing established biofilms | effective at dispersing biofilms | capable of significantly dispersing biofilm formation | relatively more effective at dispersing biofilms | capable of significantly dispersing biofilm formation | relatively more effective at dispersing biofilms | 25 | 0.21 | wound contamination (bioluminescence imaging and bacterial counts) (S. aureus Xen 36A): reduced contamination; release in 1 day [7]: about 80%; time to complete release [7]: ≤ 3 days; cytotoxicity (human osteoblasts; 50 and 25 mM): toxic; viability (percentage of viable cells relative to untreated controls) (human osteoblasts; concentrations exceeding 12.5 mM): ~60%; cytotoxicity (human osteoblasts; effective range 1-5 mM): minimal cytotoxicity; cytotoxicity (human dermal fibroblasts; dermal fibroblasts, 50 and 25 mM, 24 h): toxic; viability (percentage of viable cells relative to untreated controls) (human dermal fibroblasts; dermal fibroblasts, concentrations exceeding 12.5 mM, 24 h): ~60%; cytotoxicity (human dermal fibroblasts; dermal fibroblasts, effective range 1-5 mM, 24 h): minimal cytotoxicity; fraction released at 4 weeks ([6]; PUR scaffold with 10 wt % D-AA mixture): less than 40%; cumulative release by day 28 [6, 10]: 44%
